Measured values published in patent publication US9604945B2, “Sydnonimines-specific dopamine reuptake inhibitors and their use in treating dopamine related disorders” (priority 2007, dated 2017).

Experiments:
[1] = test system: male mice; test: Accelerating rotarod assay; format: in vivo, mouse; conditions: 10 and 90 mg/kg, FIG. 11
Description: Rotarod assays were also performed using the experimental protocol and design set forth below. Individually housed male mice aged 8-12 weeks were used for this experiment. Mice were maintained on a reverse L:D/12 p.m.: 12 a.m. cycle in a barrier facility with food and water available ad libitum. Testing occurred towards the end of the light cycle between 6-12 a.m. Mice were acclimated to the testing room for at least 30 minutes.
The assay was carried out using four EzRod test chambers kept in a laminar hood for testing. For the accelerating rotarod paradigm, mice were given 10 trials with the maximum duration of 3 minute and a 30-second intertrial interral (ITI). Each mouse was placed on the EZRod machines and the latency to fall was recorded for all trials. If the mouse fell or 3 minutes elapsed, the mouse was left in the bottom of the EzRod test chamber for 30 seconds before starting the next trial.
The latency to fall was compared between the two groups by analysis of variance (ANOVA) with repeated measures.

[2] = test system: male Swiss Webster mice; test: Spontaneous locomotor activity dose response study (NIDA MDD protocol); format: in vivo, mouse; conditions: 3, 10, 30 or 100 mg/kg IP, FIGS. 4 and 5
Description: A dose response study was conducted of locomotor depression induced by the compound of Example 3, according to NIDA's Medication Development Division (MDD) locomoter activity studies standard protocol. The study was conducted using 40 Digiscan locomotor activity testing chambers (40.5×40.5×30.5 cm) housed in sets of two, within sound attenuating chambers. A panel of infrared beams (16 beams) and corresponding photodetectors were located in the horizontal direction along the sides of each activity chamber. A 7.5 W incandescent light above each chamber provided dim illumination. Fans provided an 80 dB ambient noise level within the chamber. Separate groups of 8 non-habituated male Swiss Webster mice (Hsd:ND4, aged 2-3 months) were injected via the intraperitoneal (IP) route with either vehicle (2% methyl cellulose) or the compound of Example 3, above, (3, 10, 30 or 100 mg/kg) twenty minutes prior to locomotor activity testing. Just piro to placement in the apparatus, all mice received a saline injection IP. In all studies, horizontal activity (interruption of photocell beams) was measured for 1 hour within 10 minute periods. Testing was conducted with one mouse per activity chamber.
The same protocol was followed in a study of locomotor depression induced by the compound of Example 6. […]

[3] = test system: male mice; test: Novel environment-induced feeding suppression (NEIFS); format: in vivo, mouse; conditions: 10 and 90 mg/kg, FIG. 10
Description: Novel environment-induced feeding suppression (NEIFS) testing was also performed. Individually housed male mice aged 8-12 weeks are used for this testing. Mice were maintained no a reverse L:D/12 p.m.:12 a.m. cycle in a barrier facility with food and water available ad libitum. Testing occurred towards the end of the light cycle between 6-12 a.m. The mice were acclimated to the testing room for at least 30 minutes.
Days 1, 2, 3 and 5 (Home cage): A Petri dish containing crushed Graham crackers was placed in the farthest corner from each mouse in its own home cage. The time to approach (defined as nose of the mouse directed at or within 1 cm of the dish) and consume (eat, not pick up) the crackers was recorded immediately following the placement of the dish into home cage.
Day 4 (Novel environment): The procedure followed was the same as described for home cage; however, on day 4 the mouse was placed in a new cage with bedding (novel environment) for the duration of the experiment. The mice were subsequently returned to their respective home cages for day 5 testing. The remaining crackers and Petri dish were disposed of at the end of the experiment for each mouse.

[4] = Brain drug concentration by different routes of administration; format: in vivo, C57BL/6 mice; conditions: for Brain Drug Concentration: time 0 (pre-dose); for concentration at 5 min / concentration at 15 min / concentration at 30 min / concentration at 60 min / concentration at 120 min / concentration at 240 min / concentration at 480 min: C57BL/6, mouse, brain
Description: The following materials and methods are provided to facilitate the practice of Example 9, in which drug concentration in certain biological samples were assessed using different routes of administration.
Parameters Used in Dosing and Drug Administration of the Compound of Example 3:
Adult C57BL/6 mice (preferred 16 weeks old).
Three mice per time point. If all three routes are conducted in same day, one group of pre-dose is efficient.
In the studies using adult C57BL/6 mice (preferably approximately 16 weeks old), dosing and drug administration parameters for the compound of Example 3 were explored. Clearly, the compound is suitable for oral administration and lasts in the plasma up to 2-3 hours.

[5] = test system: mice; test: Irwin behavioral battery; format: in vivo, mouse; conditions: FIGS. 7A-7C
Description: To further characterize the pharmacological effects of these compounds, Irwin behavioral battery testing was performed.
Testing occurred towards the end of the light cycle between 8-11 a.m. (lights go off at 11:00 a.m.). The mice were acclimated to the testing room for at least 30 minutes. The Irwin test equipment (timer, viewing jar and support, open arena, grid, ruler, sound box, wood stocks, kimwipes box) was placed under a laminar flow hood. The mouse was first placed in the viewing jar for five (5) minutes and the following parameters were scored:
At the end of the 5-minute period, the viewing jar with the muose in it was transferred to the arena, where the jar was disassembled and the mouse released into the arena. The mouse was not handled by the experimenter. The following parameters were scored in the arena in the following order:
Then the mouse was picked up by its tail and kept above the arena to score the following set of parameters:
The mouse was then placed in supine restraint to score the below parameters in the following order:
The final three parameters were scored with the mouse above or in the arena: […]

Cc1ccc(C[n+]2[cH-]/c(=N\C(=O)Nc3ccccc3)on2)cc1 [Example 3, N-phenylcarbamoyl-3-(p-methyl-benzyl)-sydnonimine]
Rotarod performance [1]: did not affect rotarod performance | Effect on spontaneous locomotor activity [2]: dose dependent suppression of spontaneous locomotor activity | Anxiolytic effect in novel environment induced feeding suppression [3]: induced measurable anxiolytic effects | Brain Drug Concentration ([4]; 10 mg/kg (IP)): 0.00 ng/mL | Brain Drug Concentration ([4]; 10 mg/kg (IV)): 95.10 ng/mL | Brain Drug Concentration ([4]; 10 mg/kg (PO)): 107.55 ng/mL | Brain Drug Concentration ([4]; 30 mg/kg (PO)): 123.97 ng/mL | concentration at 5 min ([4]; intraperitoneal, 10 mg/kg (IP)): 1460 ng/mL | concentration at 15 min ([4]; intraperitoneal, 10 mg/kg (IP)): 374 ng/mL | concentration at 30 min ([4]; intraperitoneal, 10 mg/kg (IP)): 242 ng/mL | concentration at 60 min ([4]; intraperitoneal, 10 mg/kg (IP)): 190 ng/mL | concentration at 120 min ([4]; intraperitoneal, 10 mg/kg (IP)): 70.2 ng/mL | concentration at 240 min ([4]; intraperitoneal, 10 mg/kg (IP)): 143 ng/mL | concentration at 480 min ([4]; intraperitoneal, 10 mg/kg (IP)): 123 ng/mL | concentration at 5 min ([4]; 10 mg/kg (IV)): 2310 ng/mL | concentration at 15 min ([4]; 10 mg/kg (IV)): 1720 ng/mL | concentration at 30 min ([4]; 10 mg/kg (IV)): 1140 ng/mL | concentration at 60 min ([4]; 10 mg/kg (IV)): 464 ng/mL | concentration at 120 min ([4]; 10 mg/kg (IV)): 78.7 ng/mL | concentration at 240 min ([4]; 10 mg/kg (IV)): 178 ng/mL | concentration at 480 min ([4]; 10 mg/kg (IV)): 49 ng/mL | concentration at 5 min ([4]; 10 mg/kg (PO)): 418 ng/mL | concentration at 15 min ([4]; 10 mg/kg (PO)): 298 ng/mL | concentration at 30 min ([4]; 10 mg/kg (PO)): 150 ng/mL | concentration at 60 min ([4]; 10 mg/kg (PO)): 158 ng/mL | concentration at 120 min ([4]; 10 mg/kg (PO)): 165 ng/mL | concentration at 240 min ([4]; 10 mg/kg (PO)): 97.5 ng/mL | concentration at 480 min ([4]; 10 mg/kg (PO)): 163 ng/mL | concentration at 5 min ([4]; 30 mg/kg (PO)): 869 ng/mL | concentration at 15 min ([4]; 30 mg/kg (PO)): 845 ng/mL | concentration at 30 min ([4]; 30 mg/kg (PO)): 627 ng/mL | concentration at 60 min ([4]; 30 mg/kg (PO)): 218 ng/mL | concentration at 120 min ([4]; 30 mg/kg (PO)): 203 ng/mL | concentration at 240 min ([4]; 30 mg/kg (PO)): 183 ng/mL | concentration at 480 min ([4]; 30 mg/kg (PO)): 168 ng/mL | Brain penetration ([4]; administered orally or via intravenous administration): reaches the brain | Behavioral effects in Irwin Behavioral Battery (spontaneous activity, grip strength, limb tone) [5]: induced significant behavioral effects
